In PMC6437461, “Histone deacetylase inhibitory and cytotoxic activities of the constituents from the roots of three species of Ferula” (Iranian Journal of Basic Medical Sciences, 2019):
Read-outs that look alike come from different tables or passages of the source.

Legend:
[1] = system: pan-HDAC; assay: Whole-cell HDAC inhibition assay in HeLa cells; settings: read-out: HDAC inhibition IC50 HeLa, 18 hr incubation, Boc-Lys(ε-Ac)-AMC substrate
Protocol: (§3) Three wells defined as 100% initial activity and three wells defined as background and three wells for each concentration were seeded. […] The test compounds, were dissolved in dimethyl sulfoxide (final concentrations of DMSO per well was 0.1% V/V) and their concentrations adjusted to 70, 40, 20, 5, 1 μM through dilution with the growth medium. The first step of reaction was started by adding 10 µl of 3 mM Boc-Lys (ε-Ac)-AMC (Bachem, Switzerland) to each well to reach a final concentration of 0.3 mM. Then, cells were incubated with the Boc-Lys (ε-Ac)-AMC for 3 hr under cell culture conditions. […] The final volume of the solution (210 µl per well) were transferred to the black 96-well microplate with flat clear bottom. We calculated fluorescence intensity at an excitation of 360 nm and emission of 470 nm in a NOVO star microplate reader (BMGLabTech, Germany).

[2] = system: A549 cells; assay: AlamarBlue cytotoxicity assay, A549; assay type: cell-based; settings: Homo sapiens, 48 hr treatment
Protocol: (§1) Cervical (HeLa), ovarian (A2780), and lung (A549) cancer cells, obtained from Biotechnology Laboratory stocks, Biotechnology Research Center (Mashhad, Iran) and colon (HCT116) obtained from National Cell Bank of Iran (NCBI), Pasteur Institute of Iran, Tehran (Iran).
(§2) In vitro cytotoxicity tests were performed using a nonfluorescent substrate, AlamarBlue® (Paisely, UK) cell viability assay as described with some modifications (16). […] After counting, the cells were seeded in 96-well microplates (1 × 10^4 cells/100 µl in each well) and cultivated for 24 hr before addition of test compounds. Triplicate plates for three wells of each concentration were seeded. […] Thereafter, 10 μl of AlamarBlue® reagent was added and incubated for another 4 hr. Then, absorbance was measured at 600 nm using an ELISA microplate reader (Epoch; USA). IC50 values were calculated by nonlinear regression analysis using GraphPad prism (Version 6.0) software.

[3] = system: HCT116 cells; assay: AlamarBlue cytotoxicity assay, HCT116; assay type: cell-based; settings: Homo sapiens, HCT-116, 48 hr treatment
Protocol: as §1, §2

[4] = system: A2780 cells; assay: AlamarBlue cytotoxicity assay, A2780; assay type: cell-based; settings: Homo sapiens, 48 hr treatment
Protocol: as §1, §2

[5] = system: pan-HDAC; assay: Whole-cell HDAC inhibition assay in HCT116 cells; settings: read-out: HDAC inhibition IC50 HCT116, HCT116, 18 hr incubation, Boc-Lys(ε-Ac)-AMC substrate
Protocol: as §3

[6] = system: HeLa cells; assay: AlamarBlue cytotoxicity assay, HeLa; assay type: cell-based; settings: Homo sapiens, 48 hr treatment
Protocol: as §1, §2

[7] = system: pan-HDAC; assay: Whole-cell pan-HDAC inhibition, summary over HeLa and HCT116; settings: read-out: pan-HDAC inhibitory activity IC50 (range over HeLa and HCT116), collective range
Protocol: as §3

[8] = system: human cancer cell lines (HeLa, HCT116, A2780 and A549); assay: AlamarBlue cytotoxicity, summary over the four cancer cell lines; assay type: cell-based; settings: collective range, read-out: Cytotoxic activity IC50 against cancer cells (range over cell lines and compounds)
Protocol: as §1, §2

SMILES	IC50 [1]	IC50 [5]	IC50 [7]	IC50 [2]	IC50 [3]	IC50 [4]	IC50 [6]	IC50 [8]	IC50 ([8]; Homo sapiens)
CC1=CC(=O)C2C(C)(C)C(=O)CC[C@@]2(C)[C@@H]1COc1ccc2ccc(=O)oc2c1 (some centres unmarked) [Conferdione (9), Conferdione]	17.4 ± 0.5 µM	> 70 µM		32.7 ± 7.96 µM	50.9 ± 5.19 µM	38.8 ± 9.88 µM	41.7 ± 11.1 µM		
CC1=CC(OC2OC(CO)C(O)C(O)C2O)C2C(C)(C)C(=O)CC[C@@]2(C)[C@@H]1COc1ccc2ccc(=O)oc2c1 (some centres unmarked) [Conferoside (10), Conferoside]	35.27 ± 0.16 µM	9.94 ± 1.89 µM		45.8 ± 6.39 µM	35.3 ± 6.98 µM	36.4 ± 12.3 µM	40 ± 7.99 µM		11.6 to 49.4 µM
C=C1CCC(=O)C(C)(C)[C@H]1CC/C(C)=C/COc1ccc2ccc(=O)oc2c1 [Farnesiferone B (5), Farnesiferone B]	> 70 µM	40.4 ± 1.09 µM		72.5 ± 4.83 µM	50.1 ± 6.29 µM	78.9 ± 6.74 µM	71.6 ± 6.4 µM		
CCC(C)SS/C=C\COC(C)=O (centres unmarked) [Latisulfide A (13), Latisulfide A]	> 70 µM	> 70 µM		> 100 µM	> 100 µM	> 100 µM	77.6 ± 3.43 µM		
C=C(C)C(=O)OC/C=C\SSC(C)CC (centres unmarked) [Latisulfide B (14), Latisulfide B]	> 70 µM	> 70 µM		> 100 µM	> 100 µM	> 100 µM	> 100 µM		
CCC(C)SS/C=C\CO (centres unmarked) [Latisulfide D (16), Latisulfide D]	> 70 µM	> 70 µM		> 100 µM	> 100 µM	> 100 µM	> 100 µM		
CCC(C)SS/C=C/COC(=O)CC(C)(C)O (centres unmarked) [Persicasulfide C (3), Persicasulfide C]	> 70 µM	> 70 µM		> 100 µM	> 100 µM	> 100 µM	64.8 ± 1.01 µM		
COc1cc(C(=O)OC2C3(C)CCC(C3)C2(C)C)ccc1O (centres unmarked) [Stylosin (19), Stylosin]	> 70 µM	14.93 ± 0.08 µM			42.1 ± 6.1 µM	25.5 ± 5.96 µM	54.8 ± 7.53 µM		
CC(C)=CCC/C(C)=C/CC/C(C)=C/COc1ccc2ccc(=O)oc2c1 [Umbelliprenin (4), Umbelliprenin]	> 70 µM	> 70 µM		> 100 µM	> 100 µM	> 100 µM	> 100 µM		

Compounds with a lower IC50 [1], results first:

IC50 [1]	IC50 [5]	IC50 [7]	SMILES	IC50 [2]	IC50 [3]	IC50 [4]	IC50 [6]	IC50 [8]	IC50 ([8]; Homo sapiens)
1.17 ± 0.06 µM	1.06 ± 0.15 µM	1.06 to 1.17 µM	CC1=CCC2C(C)(C)C(=O)CC[C@@]2(C)[C@@H]1COc1ccc2ccc(=O)oc2c1 (some centres unmarked) [Conferone (6), Conferone]	39.2 ± 5.23 µM	31.8 ± 8.33 µM	32.4 ± 9.83 µM	38.2 ± 7.8 µM	< 50 µM	
10.7 ± 1.31 µM	5.29 ± 0.22 µM		CC1=CC[C@@H]2C(C)(C)[C@H](O)CC[C@@]2(C)[C@@H]1COc1ccc2ccc(=O)oc2c1 [Feselol (7), Feselol]	25.5 ± 5.86 µM	28.4 ± 8.1 µM	20.2 ± 9.68 µM	34.8 ± 7.94 µM		11.6 to 49.4 µM
10.6 ± 0.77 µM	25.91 ± 0.14 µM		C/C=C(/C)C(=O)OC/C=C\SSC(C)CC (centres unmarked) [Latisulfide C (15), Latisulfide C]	47.9 ± 4.73 µM	47.2 ± 8.18 µM	49.4 ± 6.2 µM	18.7 ± 8.5 µM		11.6 to 49.4 µM
5.02 ± 0.29 µM	19.9 ± 0.69 µM		CCC(C)SS/C=C\COC(=O)/C=C/c1ccc(O)c(OC)c1 (centres unmarked) [Latisulfide E (17), Latisulfide E]	69.7 ± 7.71 µM	57.1 ± 5.21 µM	71.3 ± 6.52 µM	30.6 ± 14.9 µM		
2.86 ± 1.4 µM	26.44 ± 0.03 µM		CC1=CC(=O)[C@@H]2C(C)(C)[C@H](O)CC[C@@]2(C)[C@@H]1COc1ccc2ccc(=O)oc2c1 [Ligupersin A (8), Ligupersin A]	33.5 ± 9.58 µM	68.5 ± 7.41 µM	39.5 ± 10.8 µM	22.9 ± 6.82 µM		
5.47 ± 0.89 µM	4.41 ± 0.24 µM		CCC(C)SS/C=C/COC(=O)CC(C)(C)OC(C)=O (centres unmarked) [Persicasulfide A (2), Persicasulfide A]	15.3 ± 6.77 µM	11.6 ± 10.5 µM	19.4 ± 7.29 µM	11.8 ± 11.6 µM		11.6 to 49.4 µM
